Each structure is given as a SMILES string. Like-named read-outs stand apart in the source and are kept apart here. Some results are limits rather than exact numbers.

Data set [1] concerns the target cathepsin B (Homo sapiens (Human), UniProt P07858). Description: Cathepsin B enzymatic assay. The format is biochemical. How it is done:
Cathepsin B enzymatic assay Assays contained 0.6 nM cathepsin B (RD systems: 953-CY-010), 25 uM Z-LR-AMC, 100 nL of test compound in 100% DMSO, in at total of 10 uL of 50 mM MES, pH 5.0, 150 mM NaCl, 0.05% CHAPS, 5 mM DTT in black low volume 384-well plates. The production of AMC was followed at 5 min intervals at 355 nm excitation, 460 nm emission in an Envision microplate reader (PerkinElmer). Reaction rates were determined by linear regression of the resulting progress curves. […] Nonlinear regression fits of the data to a one-site dose response curve were performed using XLFit (IDBS).

In data set [2] the target is thrombin (Homo sapiens (Human), UniProt P00734). Description: Thrombin enzymatic assay. The format is biochemical. As for the experimental part:
Thrombin enzymatic assay Assays contained 25 pM thrombin (RD systems: 1473-SE-010), 25 uM BOC—PVR-AMC, 100 nL of test compound in 100% DMSO, in at total of 10 μL of 50 mM Tris, pH 7.0, 100 mM NaCl, 10 mM CaCl2, 0.005% Tween20 in black low volume 384-well plates. The production of AMC was followed at 5 min intervals at 355 nm excitation, 460 nm emission in an Envision microplate reader (PerkinElmer). Reaction rates were determined by linear regression of the resulting progress curves. […] Nonlinear regression fits of the data to a one-site dose response curve were performed using XLFit (IDBS).

Data set [3] in a line: Metabolic stability in mouse liver microsomes. Background: Liver microsomes are vesicles of endoplasmic reticulum, rich in cytochrome P450 enzymes.
Data set [4] has as its target SARS-CoV-2 Mpro (Severe acute respiratory syndrome coronavirus 2 (2019-nCoV) (SARS-CoV-2), UniProt P0DTD1). Description: biochemical. The format is biochemical.
In data set [5] the test system is SARS-CoV-2 (WT virus, WA1/2020). Description: Virus replication in Vero-E6 cells, alamar blue viability readout. Type of data set: cell-based. To be noted: read-out: EC50 against virus replication. On the technique in general: The colour change of resazurin is a common sign of viable cells or microbes.
Data set [6] has as its target cathepsin L (Homo sapiens (Human), UniProt P07711). Description: Cathepsin L enzymatic assay. Type of data set: biochemical. How it is done: Cathepsin L enzymatic assay Assays contained 25 pM cathepsin L (RD systems: 952-CY-010), 5 uM LR-AMC, 100 nL of test compound in 100% DMSO, in at total of 10 uL of 20 mM KPO4, pH 6.0, 150 mM NaCl, 0.005% Tween20, 5 mM DTT in black low volume 384-well plates. The production of AMC was followed at 5 min intervals at 355 nm excitation, 460 nm emission in an Envision microplate reader (PerkinElmer). Reaction rates were determined by linear regression of the resulting progress curves. […] Nonlinear regression fits of the data to a one-site dose response curve were performed using XLFit (IDBS).

A short description of data set [7]: Male hamster pharmacokinetic study, plasma and lung. The conditions noted are these: ip, 10 mg/kg.
Experimental: (§1) The compound was administered as a single dose at 10 mg/kg via intraperitoneal injection formulated in 10% DMSO/10% Solutol® HS15/PBS at 2 mg/mL (FIG. 7).
Data set [8] has as its system SARS-CoV-2 WT (WA1/2020). Kind of data set: Virus replication in Vero-E6 cells, nucleocapsid immunostaining and high-content imaging, WT. To be noted: for EC50: WT (WA1/2020), 150× TCID50, 48 h, high-content imaging, read-out: EC50 against virus replication. Type of data set: cell-based.
The test system of data set [9] is SARS-CoV-2 Beta (B.1.351). Kind of data set: Virus replication in Vero-E6 cells, nucleocapsid immunostaining and high-content imaging, Beta. Type of data set: cell-based.
The subject of data set [10] is SARS-CoV-2 Delta (B.1.617). Kind of data set: Virus replication in Vero-E6 cells, nucleocapsid immunostaining and high-content imaging, Delta. Type of data set: cell-based. The conditions noted are these: for EC50: read-out: EC50 against virus replication.
For data set [11] the following is noted: hamster, in vivo, ip, 10 mg/kg.
Experimental: as §1
The test system of data set [12] is SARS-CoV-2 Omicron (B.1.1.529). Kind of data set: Virus replication in Vero-E6 cells, nucleocapsid immunostaining and high-content imaging, Omicron. The format is cell-based. To be noted: read-out: EC50 against virus replication.
The mark [13] stands for this setting: Severe acute respiratory syndrome coronavirus 2, Vero C1008, 96 h, WT (WA1/2020), 96 h, alamar blue viability.
Setting [14] is: WT (WA1/2020), 96 h, alamar blue viability.
The mark [15] stands for this setting: Severe acute respiratory syndrome coronavirus 2, Vero C1008, 48 h.

Chain of cathepsin L (P07711 114-333): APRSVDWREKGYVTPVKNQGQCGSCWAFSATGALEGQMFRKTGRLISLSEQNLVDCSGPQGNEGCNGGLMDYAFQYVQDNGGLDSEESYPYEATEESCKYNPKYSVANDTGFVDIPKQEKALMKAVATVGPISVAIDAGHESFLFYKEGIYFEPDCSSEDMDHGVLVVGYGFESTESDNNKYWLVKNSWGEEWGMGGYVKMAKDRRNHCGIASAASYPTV

In general, IC50 refers to the concentration that inhibits the measured activity by half. The term half-life denotes how long it takes for the measured level to halve. A high value points to slow loss. Usually EC50 stands for the concentration that produces a half-maximal response. As to `COc1cccc2[nH]c(C(=O)N[C@@H](CC(C)C)C(=O)N[C@@H](C[C@@H]3CCNC3=O)C(=O)COC(=O)c3c(Cl)cccc3Cl)cc12` [AP-8-001, reference compound], the IC50 in data set [1] (read-out: CatB IC50) was 0.024 ± 0.0075 µM; in data set [2], more than 10 µM; in data set [4], 0.011 µM; in [6] (read-out: CatL IC50), 0.0018 ± 0.00027 µM. For the same compound, the half-life in [3] was less than 2 min. Further, the “incubation time to achieve maximum inhibition” value in data set [4] is not above 10 min. The EC50 in [5] (setting [13]) turned out to be 1.97 µM.
In the case of `O=C(CN1C(=O)[C@@H](NC(=O)c2ccccc2)COc2ccccc21)N[C@@H](C[C@@H]1CCNC1=O)C(=O)COC(=O)c1c(Cl)cccc1Cl` [AP-8-011, (S)-3-(2-((S)-3-benzamido-4-oxo-3,4-dihydrobenzo[b][1,4]oxazepin-5(2H)-yl)acetamido)-2-oxo-4-((S)-2-oxopyrrolidin-3-yl)butyl 2,6-dichlorobenzoate], the IC50 was 13 µM in data set [1] (read-out: CatB IC50), more than 32 µM in data set [2] and more than 32 µM in [6] (read-out: CatL IC50). This compound also displayed a half-life in [3] of less than 2 min.
As a reminder, the Kp is the ratio of the level in a tissue or fluid to that in plasma or blood. In turn, `O=C(CN1C(=O)[C@@H](NC(=O)OCc2ccccc2)COc2ccccc21)N[C@@H](C[C@@H]1CCNC1=O)C(=O)COC(=O)c1c(Cl)cccc1Cl` [AP-8-013, (S)-3-(2-((S)-3-(benzyloxycarbonylamino)-4-oxo-3,4-dihydrobenzo[b][1,4]oxazepin-5(2H)-yl)acetamido)-2-oxo-4-((S)-2-oxopyrrolidin-3-yl)butyl 2,6-dichlorobenzoate] showed a Kp in data set [7] of 3.2. Also, the IC50 in data set [1] (read-out: CatB IC50) was 18 µM; in [1] (read-out: Cathepsin B IC50) it was more than 15 µM; in data set [2], more than 32 µM; in data set [6] (read-out: CatL IC50), more than 32 µM; in data set [6] (read-out: Cathepsin L IC50) it was more than 15 µM. The compound also yielded a half-life in [3] of less than 2 min. Further, the “reducing viral load (percent infected live cells)” value is “effective” in data set [8] (WT (USA-WA1/2020), 50× TCID50, 48 h, FIG. 6); “effective” in data set [9]; “effective” in data set [10]. For the same compound, the “incubation time to achieve maximum inhibition” value in data set [4] was in the range of 60 to 120 min. In addition, the “clinical symptoms during the in-life phase” value in [11] is “no abnormal clinical symptoms”. For the same compound, the lung concentration achieved result in data set [11] (male) is on record as “about 8 μM”. Besides, the EC50 in [5] (setting [13]) is less than 10 µM; in data set [5] (setting [14]), 7.25 µM.
Regarding `N[C@H]1COc2ccccc2N(CC(=O)N[C@@H](C[C@@H]2CCNC2=O)C(=O)COC(=O)c2c(Cl)cccc2Cl)C1=O.O=C(O)C(F)(F)F` [AP-9-055, (S)-3-(2-((S)-3-amino-4-oxo-3,4-dihydrobenzo[b][1,4]oxazepin-5(2H)-yl)acetamido)-2-oxo-4-((S)-2-oxopyrrolidin-3-yl)butyl 2,6-dichlorobenzoate 2,2,2-trifluoroacetate], the half-life in data set [3] is less than 2 min.
Consider `CC(C)C[C@H](NC(=O)OCc1ccccc1)C(=O)N[C@@H](C[C@@H]1CCNC1=O)C(O)S(=O)(=O)O` (stereo partly drawn) [GC-376], for which the EC50 in [8] (setting [15]) amounted to 0.27 µM; in data set [9] (Severe acute respiratory syndrome coronavirus 2, Vero C1008, 48 h, read-out: EC50 against virus replication) it was 0.29 µM; in data set [10] (setting [15]), 0.64 µM; in data set [12] (setting [15]), 0.36 µM; in data set [5] (Severe acute respiratory syndrome coronavirus 2, Vero C1008, 96 h), 2.05 µM.
In the case of `CC(C)(C)[C@H](NC(=O)C(F)(F)F)C(=O)N1C[C@H]2[C@@H]([C@H]1C(=O)N[C@H](C#N)C[C@@H]1CCNC1=O)C2(C)C` [PF07321332], the EC50 in data set [8] amounted to 0.38 µM; in [10] it was 0.33 µM; in data set [12], 0.44 µM; in data set [5] (setting [14]), 1.57 µM.

These data come from US20250092029A1 (THE WISTAR INSTITUTE OF ANATOMY AND BIOLOGY, priority 2022, published 2025).
